According to patent publication US20130230580A1, “Administration of SNS Neuroprotective Agents to Promote Hematopoietic Regeneration” (priority 2010, published 2013):

B1: GDNF-HA: glial cell-derived neurotrophic factor-hemagluttinin fusion (protein, UniProt P39905 78-211, looked up)
Glial cell line-derived …: SPDKQMAVLPRRERNRQAAAANPENSRGKGRRGQRGKNRGCVLTAIHLNVTDLGLGYETKEELIFRYCSGSCDAAETTYDKILKNLSRNRRLVSDKVGQACCRPIAFDDDLSFLDDNLVYHILRKHSAKRCGCI
modifications: hemagglutinin tag
notes: glial cell-derived neurotrophic factor-hemagluttinin fusion

Tests used:
TH+ fibers = assay: Immunofluorescence quantification of TH+ sympathetic fibers in bone marrow / calvaria; conditions: compared with vehicle control
[1] = set-up: species or system mice; conditions: mouse, in vivo
Procedure: (§1) To protect from kidney damage, mice were simultaneously subcutaneously (s.c.) injected with 1 mL of saline solution. Four weeks after the last injection of cisplatin, mice were euthanized for analysis, transplanted (see below) or mobilized with granulocyte colony-stimulating factor (G-CSF, see below).
To induce neuroprotection from 60HDA, mice were injected with 4-MC (10 μg/kg; i.p.) or GDNF-Fc (5 μg per mice; s.c.) for 5 days, starting the treatment the same day as the first injection of 60HDA.
Mice received G-CSF ([…]) s.c. every 12 hours for 5 days. Due to circadian oscillations on HSC mobilization, the last dose of G-CSF was administered 1 hour before blood collection at Zeigeber time 5.
(§2) Blood was harvested by retro-orbital sampling of mice anesthetized with isoflurane and collected in polypropylene tubes containing ethylenediaminetetraacetic acid (EDTA). Blood parameters were determined with an AcT differential counter (Beckman-Coulter). CFU-C assays were performed as described in He et al., Ann. Rev. Cell. Dev. Biol. 25:377 (2009), incorporated herein by reference. For flow cytometry, red blood cells were lysed thrice for 5 minutes at 4° C. in 0.15 M NH4Cl, cells were washed once in ice-cold PBS and counted in a hemocytometer. […] Cells were further stained with streptavidin-Cy5 (Jackson Immunotech) and analyzed with a BD LSR11 system (BD Biosciences). Bone marrow was harvested by flushing the bone with 1 mL of ice-cold PBS, red blood cells were lysed once for 5 minutes at 4° C. in 0.15 M NH4Cl, cells were washed once in ice-cold PBS and counted with a hemocytometer. CFU-C and Lin^−Sca1^+c-kit^+ft13^− numbers were determined as above. In some experiments, CD150^+CD48^− cell numbers were determined by staining 5×10^6 cells with PE-anti-CD48 antibody (BD Biosciences) and PE-Cy7-anti-CD150 antibody (Biolegend).

[2] = Complete blood counts of moribund cisplatin-treated mice after BMNC transplantation; assay type: in vivo; conditions: after BMT
Procedure: as §1
Mice were irradiated (1,200 cGy, two split doses, 3 hours apart) in a Cesium Mark 1 irradiator (JL Shepperd & associates). Three hours later, the indicated number of BMNCs was injected retroorbitally in the irradiated recipients under isoflurane (Phoenix Pharmaceuticals) anesthesia. Mice were allowed to recover and analyzed at the indicated time points.
as §2, with “Bone marrow was harvested by flushing the bone with 1 mL of ice-cold PBS, red blood cells were lysed once for 5 minutes at 4° C. in 0.15 M NH4Cl, cells were washed once in ice-cold PBS and counted with a hemocytometer.” left out, “In some experiments, CD150^+CD48^− cell numbers were determined by staining 5×10^6 cells with PE-anti-CD48 antibody (BD Biosciences) and PE-Cy7-anti-CD150 antibody (Biolegend).” left out

bone marrow = assay: Bone marrow hematopoietic recovery after transplantation (BMNC, CFU-C, Lin-Sca1+c-kit+flt3- cells); assay type: in vivo, mice
Procedure: Mice were irradiated (1,200 cGy, two split doses, 3 hours apart) in a Cesium Mark 1 irradiator (JL Shepperd & associates). Three hours later, the indicated number of BMNCs was injected retroorbitally in the irradiated recipients under isoflurane (Phoenix Pharmaceuticals) anesthesia. Mice were allowed to recover and analyzed at the indicated time points. […]
Blood was harvested by retro-orbital sampling of mice anesthetized with isoflurane and collected in polypropylene tubes containing ethylenediaminetetraacetic acid (EDTA). Blood parameters were determined with an AcT differential counter (Beckman-Coulter). CFU-C assays were performed as described in He et al., Ann. Rev. Cell. Dev. Biol. 25:377 (2009), incorporated herein by reference. For flow cytometry, red blood cells were lysed thrice for 5 minutes at 4° C. in 0.15 M NH4Cl, cells were washed once in ice-cold PBS and counted in a hemocytometer. To determine Lin^−Sca1^+c-kit^+ or Lin^−Sca1^+c-kit^+ft13^− numbers, 10^6 cells were stained with the Mouse Lineage Panel (BD Biosciences) together with FITC-conjugated anti-Sca-1 antibody (BD Biosciences), PE-Cy7-conjugated anti-c-kit antibody (eBioscience) and PE-conjugated anti-flt3 antibody (eBioscience). Cells were further stained with streptavidin-Cy5 (Jackson Immunotech) and analyzed with a BD LSR11 system (BD Biosciences). Bone marrow was harvested by flushing the bone with 1 mL of ice-cold PBS, red blood cells were lysed once for 5 minutes at 4° C. in 0.15 M NH4Cl, cells were washed once in ice-cold PBS and counted with a hemocytometer. CFU-C and Lin^−Sca1^+c-kit^+ft13^− numbers were determined as above. In some experiments, CD150^+CD48^− cell numbers were determined by staining 5×10^6 cells with PE-anti-CD48 antibody (BD Biosciences) and PE-Cy7-anti-CD150 antibody (Biolegend).

[3] = assay type: in vivo; conditions: cisplatin-treated vs saline mice, seven weekly injections; listed as Cisplatin
Procedure: To protect from kidney damage, mice were simultaneously subcutaneously (s.c.) injected with 1 mL of saline solution. Four weeks after the last injection of cisplatin, mice were euthanized for analysis, transplanted (see below) or mobilized with granulocyte colony-stimulating factor (G-CSF, see below). […] To induce neuroprotection from 60HDA, mice were injected with 4-MC (10 μg/kg; i.p.) or GDNF-Fc (5 μg per mice; s.c.) for 5 days, starting the treatment the same day as the first injection of 60HDA. To evaluate the effect of different treatments on the sensory response, the hot-plate test was performed as described in Raaijmakers et al., Curr. Opin. Hematol. 15:301 (2008), incorporated herein by reference. An Isotemp Dryblock (Fisher Scientific) was heated to, and maintained at, 50° C. Mice were individually placed on top of the heated surface and the time to the first episode of nociception (jumping or paw licking) was measured. The cut-off time was 60 seconds. Between measurements, the heated surface was thoroughly cleaned with detergent and ethanol and the temperature was allowed to stabilize at 50° C.

PC12ES cells = assay: Neural differentiation of PC12ES cells; assay type: cell-based; conditions: incubation for 1 week
Procedure: The murine cDNA for glial cell-line derived neurotrophic factor (Gdnf) was obtained from Open Biosystems. This cDNA was amplified and restriction sites were added for cloning with the following primers Forward: ACGCTAGCAATGGGATTCGGGCCACTT (SEQ ID NO:1); Reverse: CGAGATCTGCGATACATCCACACCGTTTAG (SEQ ID NO:2). The PCR product was purified and cloned into the PCL5.1neg plasmid to generate PCL5.1neg-GDNF. This plasmid was purified and transfected into 293T cells. Two days after transfection, the supernatant was collected and GDNF-Fc purified in a Protein G-sepharose column (Pierce). To assess functional activity of GDNF-Fc recombinant protein, PC12ES cells were cultured in DMEM supplemented with 5% FBS, 10% horse serum, sodium-pyruvate (Gibco), L-Glutamine (Gibco) and penicillin/streptomycin (Gibco) for 3 days and then the media was replaced with DMEM supplemented with 1% horse serum, sodium-pyruvate (Gibco), L-Glutamine (Gibco), penicillin/streptomycin (Gibco) and varying amounts of GDNF-Fc to induce differentiation. Seven days later the percentage of PC12 ES cells with two or more dendrites was scored under an inverted microscope. For each concentration of GDNF-Fc, 10 fields were analyzed.

Molecule | reduction of density of TH+ fibers in bone marrow (TH+ fibers) | number of mobilized progenitors in blood after G-CSF [1] | progenitor and Lin-Sca1+c-kit+flt3- HSC numbers in BM [1] | reduction in number of mobilized progenitors in blood [1] | anemia in moribund mice [2] | bone marrow cellularity of surviving mice after transplantation (bone marrow; cisplatin-treated, four weeks after BMT) | BM recovery 3 months after transplantation (bone marrow; mouse, in vivo) | HSC content by competitive repopulation assays (bone marrow; mouse, in vivo) | sensory neuropathy (latency time in nociception assay) [3] | neural differentiation of PC12ES cells (percent differentiated) (PC12ES cells)
N.N.[Cl][Pt][Cl] [cisplatin] | 65% | markedly reduced | no significant change | approximately 50% | severe anemia | severely aplastic | not yet completely recovered | reduced HSC content | induces peripheral neuropathy | 
B1 |  |  |  |  |  |  |  |  |  | increase in the percent differentiation
